Measured values published in ChEMBL document CHEMBL1201861, “Genomics of Drug Sensitity in Cancer screening data, Wellcome Trust Sanger Institute”.

test system: Ca-Ski; assay: cells; type: functional, cell-based; details: Homo sapiens;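 note: cell viability assay measuring inhibition of Ca-Ski cell growth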
Description: SANGER: Inhibition of human Ca-Ski cell growth in a cell viability assay.

SMILES	IC50
OC[C@H](Cc1ccccc1)Nc1nc(Oc2ccc3c(c2)CCC3)nc2c1ncn2Cc1ccc(-c2ccccc2)cc1	> 10.2 µM

test system: DOK; assay: cells; type: functional, cell-based; details: Homo sapiens;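 note: cell viability assay read-out, values reflect inhibition of cell growth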
Description: SANGER: Inhibition of human DOK cell growth in a cell viability assay.

SMILES	IC50
OC[C@H](Cc1ccccc1)Nc1nc(Oc2ccc3c(c2)CCC3)nc2c1ncn2Cc1ccc(-c2ccccc2)cc1	> 10.2 µM

test system: DU-145; assay: cells; type: functional, cell-based; details: Homo sapiens
Description: SANGER: Inhibition of human DU-145 cell growth in a cell viability assay.

SMILES	IC50
OC[C@H](Cc1ccccc1)Nc1nc(Oc2ccc3c(c2)CCC3)nc2c1ncn2Cc1ccc(-c2ccccc2)cc1	7.86 µM

test system: EC-GI-10; assay: cells; type: functional, cell-based, Homo sapiens; details: Homo sapiens, EC-GI-10
Description: SANGER: Inhibition of human EC-GI-10 cell growth in a cell viability assay.

SMILES	IC50
OC[C@H](Cc1ccccc1)Nc1nc(Oc2ccc3c(c2)CCC3)nc2c1ncn2Cc1ccc(-c2ccccc2)cc1	> 10.2 µM

test system: GP5d; assay: cells; type: functional, cell-based; details: Homo sapiens;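 note: growth inhibition of human GP5d cells, read out with a cell viability assay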
Description: SANGER: Inhibition of human GP5d cell growth in a cell viability assay.

SMILES	IC50
OC[C@H](Cc1ccccc1)Nc1nc(Oc2ccc3c(c2)CCC3)nc2c1ncn2Cc1ccc(-c2ccccc2)cc1	> 10.2 µM

test system: HCC1569; assay: cells; type: functional, cell-based; details: Homo sapiens;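 note: growth inhibition of human HCC1569 cells, read out with a cell viability assay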
Description: SANGER: Inhibition of human HCC1569 cell growth in a cell viability assay.

SMILES	IC50
OC[C@H](Cc1ccccc1)Nc1nc(Oc2ccc3c(c2)CCC3)nc2c1ncn2Cc1ccc(-c2ccccc2)cc1	> 10.2 µM

test system: HO-1-N-1; assay: cells; type: functional, cell-based; details: Homo sapiens;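 note: growth inhibition of human HO-1-N-1 cells, read out with a cell viability assay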
Description: SANGER: Inhibition of human HO-1-N-1 cell growth in a cell viability assay.

SMILES	IC50
OC[C@H](Cc1ccccc1)Nc1nc(Oc2ccc3c(c2)CCC3)nc2c1ncn2Cc1ccc(-c2ccccc2)cc1	> 10.2 µM

test system: HT1197; assay: cells; type: functional, cell-based, HT-1197; details: Homo sapiens
Description: SANGER: Inhibition of human HT-1197 cell growth in a cell viability assay.

SMILES	IC50
OC[C@H](Cc1ccccc1)Nc1nc(Oc2ccc3c(c2)CCC3)nc2c1ncn2Cc1ccc(-c2ccccc2)cc1	> 10.2 µM

test system: HuP-T4; assay: cells; type: functional, cell-based; details: Homo sapiens;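 note: cell viability assay measuring how much HuP-T4 cell growth is inhibited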
Description: SANGER: Inhibition of human HuP-T4 cell growth in a cell viability assay.

SMILES	IC50
OC[C@H](Cc1ccccc1)Nc1nc(Oc2ccc3c(c2)CCC3)nc2c1ncn2Cc1ccc(-c2ccccc2)cc1	7.07 µM

test system: IGR-1; assay: cells; type: functional, cell-based; details: Homo sapiens;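 note: growth inhibition of human IGR-1 cells, read out with a cell viability assay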
Description: SANGER: Inhibition of human IGR-1 cell growth in a cell viability assay.

SMILES	IC50
OC[C@H](Cc1ccccc1)Nc1nc(Oc2ccc3c(c2)CCC3)nc2c1ncn2Cc1ccc(-c2ccccc2)cc1	> 10.2 µM

test system: IGROV-1; assay: cells; type: functional, cell-based; details: Homo sapiens;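 note: reduction of IGROV-1 cell growth, read out with a viability assay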
Description: SANGER: Inhibition of human IGROV-1 cell growth in a cell viability assay.

SMILES	IC50
OC[C@H](Cc1ccccc1)Nc1nc(Oc2ccc3c(c2)CCC3)nc2c1ncn2Cc1ccc(-c2ccccc2)cc1	8.45 µM

test system: J82; assay: cells; type: functional, cell-based; details: Homo sapiens;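 note: growth inhibition of J82 cells, read out with a cell viability assay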
Description: SANGER: Inhibition of human J82 cell growth in a cell viability assay.

SMILES	IC50
OC[C@H](Cc1ccccc1)Nc1nc(Oc2ccc3c(c2)CCC3)nc2c1ncn2Cc1ccc(-c2ccccc2)cc1	9.51 µM

test system: K052; assay: cells; type: functional, cell-based, Homo sapiens; details: Homo sapiens, K052;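 note: Read-out from a cell viability assay, IC50 reflecting suppression of K052 cell growth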
Description: SANGER: Inhibition of human K052 cell growth in a cell viability assay.

SMILES	IC50
OC[C@H](Cc1ccccc1)Nc1nc(Oc2ccc3c(c2)CCC3)nc2c1ncn2Cc1ccc(-c2ccccc2)cc1	> 10.2 µM

test system: KYSE-520 cell line; assay: cells; type: functional, cell-based; details: Homo sapiens;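 note: growth inhibition of human KYSE-520 cells, read out with a viability assay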
Description: SANGER: Inhibition of human KYSE-520 cell growth in a cell viability assay.

SMILES	IC50
OC[C@H](Cc1ccccc1)Nc1nc(Oc2ccc3c(c2)CCC3)nc2c1ncn2Cc1ccc(-c2ccccc2)cc1	> 10.2 µM

test system: LU-99A; assay: cells; type: functional, cell-based; details: Homo sapiens;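 note: growth inhibition of LU-99A cells, read out with a cell viability assay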
Description: SANGER: Inhibition of human LU-99A cell growth in a cell viability assay.

SMILES	IC50
OC[C@H](Cc1ccccc1)Nc1nc(Oc2ccc3c(c2)CCC3)nc2c1ncn2Cc1ccc(-c2ccccc2)cc1	> 10.2 µM

test system: M14; assay: cells; type: functional, cell-based; details: Homo sapiens;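 note: growth inhibition of M14 cells, read out with a cell viability assay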
Description: SANGER: Inhibition of human M14 cell growth in a cell viability assay.

SMILES	IC50
OC[C@H](Cc1ccccc1)Nc1nc(Oc2ccc3c(c2)CCC3)nc2c1ncn2Cc1ccc(-c2ccccc2)cc1	> 10.2 µM

test system: MDA-MB-231; assay: cells; type: functional, cell-based; details: Homo sapiens
Description: SANGER: Inhibition of human MDA-MB-231 cell growth in a cell viability assay.

SMILES	IC50
OC[C@H](Cc1ccccc1)Nc1nc(Oc2ccc3c(c2)CCC3)nc2c1ncn2Cc1ccc(-c2ccccc2)cc1	> 10.2 µM

test system: MEL-JUSO; assay: cells; type: functional, cell-based; details: Homo sapiens;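 note: growth inhibition of human MEL-JUSO cells, read out with a cell viability assay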
Description: SANGER: Inhibition of human MEL-JUSO cell growth in a cell viability assay.

SMILES	IC50
OC[C@H](Cc1ccccc1)Nc1nc(Oc2ccc3c(c2)CCC3)nc2c1ncn2Cc1ccc(-c2ccccc2)cc1	7.9 µM

test system: MFE-280; assay: cells; type: functional, cell-based; details: Homo sapiens;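 note: growth inhibition of MFE-280 cells, determined with a cell viability readout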
Description: SANGER: Inhibition of human MFE-280 cell growth in a cell viability assay.

SMILES	IC50
OC[C@H](Cc1ccccc1)Nc1nc(Oc2ccc3c(c2)CCC3)nc2c1ncn2Cc1ccc(-c2ccccc2)cc1	> 10.2 µM

test system: NCI-H1417; assay: cells; type: functional, cell-based, Homo sapiens; details: Homo sapiens, NCI-H1417;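 note: human NCI-H1417 cells, growth inhibition determined with a cell viability readout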
Description: SANGER: Inhibition of human NCI-H1417 cell growth in a cell viability assay.

SMILES	IC50
OC[C@H](Cc1ccccc1)Nc1nc(Oc2ccc3c(c2)CCC3)nc2c1ncn2Cc1ccc(-c2ccccc2)cc1	> 10.2 µM

test system: NCI-H1573; assay: cells; type: functional, cell-based; details: Homo sapiens;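 note: growth inhibition of NCI-H1573 cells, read out with a cell viability assay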
Description: SANGER: Inhibition of human NCI-H1573 cell growth in a cell viability assay.

SMILES	IC50
OC[C@H](Cc1ccccc1)Nc1nc(Oc2ccc3c(c2)CCC3)nc2c1ncn2Cc1ccc(-c2ccccc2)cc1	> 10.2 µM

test system: NCI-H1755; assay: cells; type: functional, cell-based; details: Homo sapiens;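 note: cell viability readout used to measure growth inhibition of NCI-H1755 cells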
Description: SANGER: Inhibition of human NCI-H1755 cell growth in a cell viability assay.

SMILES	IC50
OC[C@H](Cc1ccccc1)Nc1nc(Oc2ccc3c(c2)CCC3)nc2c1ncn2Cc1ccc(-c2ccccc2)cc1	> 10.2 µM

test system: NCI-H1993; assay: cells; type: functional, cell-based; details: Homo sapiens;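 note: growth inhibition of the cancer cell line, assessed with a cell viability assay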
Description: SANGER: Inhibition of human NCI-H1993 cell growth in a cell viability assay.

SMILES	IC50
OC[C@H](Cc1ccccc1)Nc1nc(Oc2ccc3c(c2)CCC3)nc2c1ncn2Cc1ccc(-c2ccccc2)cc1	> 10.2 µM

test system: NCI-H2081; assay: cells; type: functional, cell-based, Homo sapiens; details: Homo sapiens, NCI-H2081;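 note: growth inhibition of human NCI-H2081 cells, read out with a cell viability assay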
Description: SANGER: Inhibition of human NCI-H2081 cell growth in a cell viability assay.

SMILES	IC50
OC[C@H](Cc1ccccc1)Nc1nc(Oc2ccc3c(c2)CCC3)nc2c1ncn2Cc1ccc(-c2ccccc2)cc1	> 10.2 µM

test system: NCI-H2087; assay: cells; type: functional, cell-based; details: Homo sapiens;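 note: growth inhibition determined with a cell viability readout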
Description: SANGER: Inhibition of human NCI-H2087 cell growth in a cell viability assay.

SMILES	IC50
OC[C@H](Cc1ccccc1)Nc1nc(Oc2ccc3c(c2)CCC3)nc2c1ncn2Cc1ccc(-c2ccccc2)cc1	> 10.2 µM

test system: NCI-H2196; assay: cells; type: functional, cell-based, Homo sapiens; details: Homo sapiens, NCI-H2196; read-out: IC50;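 note: cell viability assay used as the readout of growth inhibition in NCI-H2196 cells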
Description: SANGER: Inhibition of human NCI-H2196 cell growth in a cell viability assay.

SMILES	IC50
OC[C@H](Cc1ccccc1)Nc1nc(Oc2ccc3c(c2)CCC3)nc2c1ncn2Cc1ccc(-c2ccccc2)cc1	> 10.2 µM

test system: NCI-H2342; assay: cells; type: functional, cell-based; details: Homo sapiens;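 note: growth inhibition of the cancer cell line, determined with a cell viability assay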
Description: SANGER: Inhibition of human NCI-H2342 cell growth in a cell viability assay.

SMILES	IC50
OC[C@H](Cc1ccccc1)Nc1nc(Oc2ccc3c(c2)CCC3)nc2c1ncn2Cc1ccc(-c2ccccc2)cc1	3.72 µM

test system: NCI-H292; assay: cells; type: functional, cell-based; details: Homo sapiens;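 note: growth inhibition of NCI-H292 cells, read out with a cell viability assay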
Description: SANGER: Inhibition of human NCI-H292 cell growth in a cell viability assay.

SMILES	IC50
OC[C@H](Cc1ccccc1)Nc1nc(Oc2ccc3c(c2)CCC3)nc2c1ncn2Cc1ccc(-c2ccccc2)cc1	> 10.2 µM

test system: NCI-H520; assay: cells; type: functional, cell-based; details: Homo sapiens;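 note: growth inhibition of NCI-H520 cells, measured by a cell viability assay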
Description: SANGER: Inhibition of human NCI-H520 cell growth in a cell viability assay.

SMILES	IC50
OC[C@H](Cc1ccccc1)Nc1nc(Oc2ccc3c(c2)CCC3)nc2c1ncn2Cc1ccc(-c2ccccc2)cc1	> 10.2 µM

test system: NCI-H64; assay: cells; type: functional, cell-based, Homo sapiens; details: Homo sapiens, NCI-H64;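 note: growth inhibition of NCI-H64 cells, read out with a cell viability assay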
Description: SANGER: Inhibition of human NCI-H64 cell growth in a cell viability assay.

SMILES	IC50
OC[C@H](Cc1ccccc1)Nc1nc(Oc2ccc3c(c2)CCC3)nc2c1ncn2Cc1ccc(-c2ccccc2)cc1	> 10.2 µM

test system: OAW-28; assay: cells; type: functional, cell-based; details: Homo sapiens;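 note: growth inhibition of OAW-28 cells, read out with a cell viability assay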
Description: SANGER: Inhibition of human OAW-28 cell growth in a cell viability assay.

SMILES	IC50
OC[C@H](Cc1ccccc1)Nc1nc(Oc2ccc3c(c2)CCC3)nc2c1ncn2Cc1ccc(-c2ccccc2)cc1	> 10.2 µM

test system: OVCAR-5; assay: cells; type: functional, cell-based; details: Homo sapiens;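 note: growth inhibition of human OVCAR-5 cells, read out with a cell viability assay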
Description: SANGER: Inhibition of human OVCAR-5 cell growth in a cell viability assay.

SMILES	IC50
OC[C@H](Cc1ccccc1)Nc1nc(Oc2ccc3c(c2)CCC3)nc2c1ncn2Cc1ccc(-c2ccccc2)cc1	> 10.2 µM

test system: PF-382; assay: cells; type: functional, cell-based, Homo sapiens; details: Homo sapiens, PF-382
Description: SANGER: Inhibition of human PF-382 cell growth in a cell viability assay.

SMILES	IC50
OC[C@H](Cc1ccccc1)Nc1nc(Oc2ccc3c(c2)CCC3)nc2c1ncn2Cc1ccc(-c2ccccc2)cc1	> 10.2 µM

test system: RPMI-2650; assay: cells; type: functional, cell-based; details: Homo sapiens
Description: SANGER: Inhibition of human RPMI-2650 cell growth in a cell viability assay.

SMILES	IC50
OC[C@H](Cc1ccccc1)Nc1nc(Oc2ccc3c(c2)CCC3)nc2c1ncn2Cc1ccc(-c2ccccc2)cc1	> 10.2 µM

test system: RVH-421; assay: cells; type: functional, cell-based; details: Homo sapiens
Description: SANGER: Inhibition of human RVH-421 cell growth in a cell viability assay.

SMILES	IC50
OC[C@H](Cc1ccccc1)Nc1nc(Oc2ccc3c(c2)CCC3)nc2c1ncn2Cc1ccc(-c2ccccc2)cc1	> 10.2 µM

test system: S-117; assay: cells; type: functional, cell-based; details: Homo sapiens
Description: SANGER: Inhibition of human S-117 cell growth in a cell viability assay.

SMILES	IC50
OC[C@H](Cc1ccccc1)Nc1nc(Oc2ccc3c(c2)CCC3)nc2c1ncn2Cc1ccc(-c2ccccc2)cc1	4.88 µM

test system: SBC-5; assay: cells; type: functional, cell-based; details: Homo sapiens;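 note: cell viability assay read-out, IC50 is the concentration that inhibits growth of the cells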
Description: SANGER: Inhibition of human SBC-5 cell growth in a cell viability assay.

SMILES	IC50
OC[C@H](Cc1ccccc1)Nc1nc(Oc2ccc3c(c2)CCC3)nc2c1ncn2Cc1ccc(-c2ccccc2)cc1	> 10.2 µM

test system: SCC-3; assay: cells; type: functional, cell-based, Homo sapiens; details: Homo sapiens, SCC-3;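 note: cell viability assay measuring inhibition of SCC-3 cell growth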
Description: SANGER: Inhibition of human SCC-3 cell growth in a cell viability assay.

SMILES	IC50
OC[C@H](Cc1ccccc1)Nc1nc(Oc2ccc3c(c2)CCC3)nc2c1ncn2Cc1ccc(-c2ccccc2)cc1	> 10.2 µM

test system: SK-OV-3; assay: cells; type: functional, cell-based; details: Homo sapiens;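 note: growth inhibition of SK-OV-3 human cells, read out with a cell viability assay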
Description: SANGER: Inhibition of human SK-OV-3 cell growth in a cell viability assay.

SMILES	IC50
OC[C@H](Cc1ccccc1)Nc1nc(Oc2ccc3c(c2)CCC3)nc2c1ncn2Cc1ccc(-c2ccccc2)cc1	> 10.2 µM

test system: SNU-423; assay: cells; type: functional, cell-based; details: Homo sapiens
Description: SANGER: Inhibition of human SNU-423 cell growth in a cell viability assay.

SMILES	IC50
OC[C@H](Cc1ccccc1)Nc1nc(Oc2ccc3c(c2)CCC3)nc2c1ncn2Cc1ccc(-c2ccccc2)cc1	> 10.2 µM

test system: SUP-T1; assay: cells; type: functional, cell-based, Homo sapiens; details: Homo sapiens, SUP-T1;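 note: growth inhibition of human SUP-T1 cells, read out as cell viability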
Description: SANGER: Inhibition of human SUP-T1 cell growth in a cell viability assay.

SMILES	IC50
OC[C@H](Cc1ccccc1)Nc1nc(Oc2ccc3c(c2)CCC3)nc2c1ncn2Cc1ccc(-c2ccccc2)cc1	4.97 µM

test system: SW1088; assay: cells; type: functional, cell-based; details: Homo sapiens;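 note: growth inhibition of human SW1088 cells, read out by a cell viability assay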
Description: SANGER: Inhibition of human SW1088 cell growth in a cell viability assay.

SMILES	IC50
OC[C@H](Cc1ccccc1)Nc1nc(Oc2ccc3c(c2)CCC3)nc2c1ncn2Cc1ccc(-c2ccccc2)cc1	> 10.2 µM

test system: SW48; assay: cells; type: functional, cell-based; details: Homo sapiens;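 note: growth inhibition of SW48 cells, read out with a cell viability assay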
Description: SANGER: Inhibition of human SW48 cell growth in a cell viability assay.

SMILES	IC50
OC[C@H](Cc1ccccc1)Nc1nc(Oc2ccc3c(c2)CCC3)nc2c1ncn2Cc1ccc(-c2ccccc2)cc1	> 10.2 µM

test system: T47D; assay: cells; type: functional, cell-based; details: Homo sapiens;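 note: growth inhibition of human T47D cells, measured with a cell viability assay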
Description: SANGER: Inhibition of human T47D cell growth in a cell viability assay.

SMILES	IC50
OC[C@H](Cc1ccccc1)Nc1nc(Oc2ccc3c(c2)CCC3)nc2c1ncn2Cc1ccc(-c2ccccc2)cc1	> 10.2 µM

test system: CWR22R; assay: cells; type: functional, cell-based; details: Homo sapiens, 22Rv1;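 note: growth inhibition of 22Rv1 cells, read out with a cell viability assay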
Description: SANGER: Inhibition of human 22RV1 cell growth in a cell viability assay.

SMILES	IC50
OC[C@H](Cc1ccccc1)Nc1nc(Oc2ccc3c(c2)CCC3)nc2c1ncn2Cc1ccc(-c2ccccc2)cc1	> 10.2 µM

test system: 639-V; assay: cells; type: functional, cell-based; details: Homo sapiens;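 note: growth inhibition of 639-V cells, read out with a cell viability assay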
Description: SANGER: Inhibition of human 639-V cell growth in a cell viability assay.

SMILES	IC50
OC[C@H](Cc1ccccc1)Nc1nc(Oc2ccc3c(c2)CCC3)nc2c1ncn2Cc1ccc(-c2ccccc2)cc1	1.15 µM

test system: ASPC1; assay: cells; type: functional, cell-based; details: Homo sapiens;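 note: growth inhibition of AsPC-1 cells, read out with a cell viability assay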
Description: SANGER: Inhibition of human AsPC-1 cell growth in a cell viability assay.

SMILES	IC50
OC[C@H](Cc1ccccc1)Nc1nc(Oc2ccc3c(c2)CCC3)nc2c1ncn2Cc1ccc(-c2ccccc2)cc1	> 10.2 µM

test system: BOKU; assay: cells; type: functional, cell-based; details: Homo sapiens;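 note: growth inhibition of the human BOKU cell line, read out by a cell viability assay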
Description: SANGER: Inhibition of human BOKU cell growth in a cell viability assay.

SMILES	IC50
OC[C@H](Cc1ccccc1)Nc1nc(Oc2ccc3c(c2)CCC3)nc2c1ncn2Cc1ccc(-c2ccccc2)cc1	> 10.2 µM

test system: C32; assay: cells; type: functional, cell-based; details: Homo sapiens;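 note: cell viability assay, with IC50 reflecting inhibition of C32 cell growth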
Description: SANGER: Inhibition of human C32 cell growth in a cell viability assay.

SMILES	IC50
OC[C@H](Cc1ccccc1)Nc1nc(Oc2ccc3c(c2)CCC3)nc2c1ncn2Cc1ccc(-c2ccccc2)cc1	> 10.2 µM

test system: CAL-120; assay: cells; type: functional, cell-based; details: Homo sapiens;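 note: cell growth inhibition, read out as cell viability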
Description: SANGER: Inhibition of human CAL-120 cell growth in a cell viability assay.

SMILES	IC50
OC[C@H](Cc1ccccc1)Nc1nc(Oc2ccc3c(c2)CCC3)nc2c1ncn2Cc1ccc(-c2ccccc2)cc1	> 10.2 µM

test system: CAL-27; assay: cells; type: functional, cell-based; details: Homo sapiens;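 note: Viability-based readout, IC50 reflecting inhibition of CAL-27 cell growth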
Description: SANGER: Inhibition of human CAL-27 cell growth in a cell viability assay.

SMILES	IC50
OC[C@H](Cc1ccccc1)Nc1nc(Oc2ccc3c(c2)CCC3)nc2c1ncn2Cc1ccc(-c2ccccc2)cc1	> 10.2 µM

test system: CAL-62; assay: cells; type: functional, cell-based; details: Homo sapiens;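 note: growth inhibition of CAL-62 cells, read out with a cell viability assay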
Description: SANGER: Inhibition of human CAL-62 cell growth in a cell viability assay.

SMILES	IC50
OC[C@H](Cc1ccccc1)Nc1nc(Oc2ccc3c(c2)CCC3)nc2c1ncn2Cc1ccc(-c2ccccc2)cc1	9.44 µM

test system: TUR; assay: cells; type: functional, cell-based, Homo sapiens; details: Homo sapiens, TUR;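 note: growth inhibition of human TUR cells, read out with a cell viability assay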
Description: SANGER: Inhibition of human TUR cell growth in a cell viability assay.

SMILES	IC50
OC[C@H](Cc1ccccc1)Nc1nc(Oc2ccc3c(c2)CCC3)nc2c1ncn2Cc1ccc(-c2ccccc2)cc1	> 10.2 µM

test system: U-698-M; assay: cells; type: functional, cell-based, Homo sapiens; details: Homo sapiens, U-698-M
Description: SANGER: Inhibition of human U-698-M cell growth in a cell viability assay.

SMILES	IC50
OC[C@H](Cc1ccccc1)Nc1nc(Oc2ccc3c(c2)CCC3)nc2c1ncn2Cc1ccc(-c2ccccc2)cc1	> 10.2 µM

test system: UACC-62; assay: cells; type: functional, cell-based; details: Homo sapiens;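 note: growth inhibition of human UACC-62 cells, read out by a cell viability assay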
Description: SANGER: Inhibition of human UACC-62 cell growth in a cell viability assay.

SMILES	IC50
OC[C@H](Cc1ccccc1)Nc1nc(Oc2ccc3c(c2)CCC3)nc2c1ncn2Cc1ccc(-c2ccccc2)cc1	> 10.2 µM

test system: VMRC-RCZ; assay: cells; type: functional, cell-based; details: Homo sapiens;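 note: growth inhibition measured with a cell viability assay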
Description: SANGER: Inhibition of human VMRC-RCZ cell growth in a cell viability assay.

SMILES	IC50
OC[C@H](Cc1ccccc1)Nc1nc(Oc2ccc3c(c2)CCC3)nc2c1ncn2Cc1ccc(-c2ccccc2)cc1	> 10.2 µM

test system: CHL-1; assay: cells; type: functional, cell-based; details: Homo sapiens;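 note: cell growth inhibition, read out with a cell viability assay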
Description: SANGER: Inhibition of human CHL-1 cell growth in a cell viability assay.

SMILES	IC50
OC[C@H](Cc1ccccc1)Nc1nc(Oc2ccc3c(c2)CCC3)nc2c1ncn2Cc1ccc(-c2ccccc2)cc1	> 10.2 µM
